Laboratory results reported in patent US10869903B2, “Probiotic and prebiotic compositions, and methods of use thereof for treatment and prevention of graft versus host disease” (Evelo Biosciences, Inc., priority 2014, dated 2020).

Experiments:
[1] = human, in vivo
Experimental: D-xylose is a carbon source generally preferred by anaerobic bacteria. […] A parallel, double-blind, 5 cohort escalation food safety study was conducted to examine D-xylose in normal human volunteers. The study was a double-blind, single-center, parallel group study designed to evaluate the tolerability and potential microbiome changes induced by ingestion of D-xylose at 5 different amounts in healthy, adult volunteers enrolled at 1 study center in the United States (US).
Subjects were screened for eligibility within 21 days prior to the first planned ingestion of study sweetener on Day 1 (Baseline). […]
Subjects returned to the study center weekly on Days 8, 15, 22, and 28 for ingestion, tolerability, and compliance evaluations. Safety was evaluated on a continual basis through adverse events (AE) monitoring, clinical laboratory measurements, vital sign monitoring, physical examinations, electrocardiograms (ECGs), telephone follow-up, and electronic subject ingestion diaries. Stool was collected pre-ingestion and at pre-specified time points, and post-ingestion samples were evaluated for changes in the gut microbiome compared with Baseline for all subjects. […]
Safety was evaluated on a continual basis through AE monitoring, clinical laboratory measurements, vital sign monitoring, physical examinations, ECGs, telephone follow-up, and electronic subject ingestion diaries. […]

Lactobacillus johnsonii = type: cell-based
[2] = test system: anaerobic commensal bacteria; assay: Carbon source usage profiling on Biolog PM01 and PM02A plates (OD 750 nm); type: cell-based
[3] = Normal human volunteer study of D-xylose: serum and urine pharmacokinetics; type: in vivo, healthy, adult volunteers
Text: Blood and urine were collected at pre-specified pre- and post-ingestion time points to measure D-xylose levels and to characterize the systemic absorption profiles of D-xylose. Phoenix® WinNonLin®, Version 6.2.1, was used for PK analyses. Serum D-xylose concentrations were summarized by cohort using nominal sample times according to actual amount received using summary statistics (n, coefficient of variation [CV], mean, standard deviation [SD], median, minimum, and maximum). Evidence for the occurrence of steady-state was assessed graphically by comparing the time course of either trough or 2-hour post-ingestion serum concentrations of D-xylose as different levels of D-xylose. Accumulation was assessed by comparing the 2-hour post-first-ingestion serum levels with those observed at Week 2 (Day 15) and Week 4 (Day 28). […] Urine PK parameters for D-xylose levels included Ae(0-t) (cumulative amount of sweetener recovered in urine) and percent sweetener amount excreted over a 5-hour period.

[4] = Normal human volunteer study of D-xylose: CRP, serum cytokines, T-cell markers; type: in vivo, healthy, adult volunteers
Text: Blood was collected at pre-specified pre- and post-ingestion time points to evaluate C-reactive protein (CRP), serum cytokines (tumor necrosis factor alpha [TNF-α], interleukin [IL]-2, IL-6, interferon gamma [IFN-γ], and IL-10), and T-cell markers CD3, CD4, CD8, CD25, and FOXP3. Plasma was also stored and may be tested for biomarkers and/or metabolic markers for up to 7 years.
Summary statistics (n, mean, standard deviation, median, minimum, and maximum) were presented for serum concentrations of CRP, flow cytometry T-cell markers (CD3, CD4, CD8, CD25, and FOXP3), and cytokines (TNF-α, IL-2, IL-6, IFN-γ, and IL-10) as per their nominal time points.

blautia = assay: Sugar fermentation in media lacking glucose (pH and optical density); type: cell-based
GVHD = test system: GVHD; design: species or system mice; settings: mouse, in vivo
[5] = test system: Tregs in the large intestine; settings: mouse, in vivo; cited from earlier work
[6] = test system: microbiome of the gut and the vagina; design: species or system C57Bl/6 female mice; settings: mouse, in vivo
Text: The trillions of organisms forming the microbiome function as an organ system interconnected throughout the body. The possibility that modification of the microbiome in a given physical location may influence the microbiome at other sites in the body (distal augmentation) was investigated. Seven week old C57Bl/6 female mice were acclimatized for 7 days prior to the start of the study by daily handling and shuffling between cages. All mice were housed at three mice per cage in individually vented cages (Thoren, Hazleton, Pa.). At day 0, baseline fresh fecal pellets, and vaginal lavages with 100 μL of sterile double-distilled water were collected and immediately frozen at −80° C. for microbiome analysis. […] Water alone is not expected to influence the microbiome and acted as a negative control. […] The impact of oral vancomycin is therefore expected to be limited to the gastrointestinal tract such that microbiome changes elsewhere in the body (e.g. vagina) would be attributable to distal augmentation. […]
Isolation and sequencing of microbial DNA from the stool and vaginal samples was performed by DNA Genotek (Ottawa, ON, Canada). The V3-V4 region of the 16S ribosomal subunit was amplified with custom PCR primers and sequenced on an Illumina MiSeq to a minimum acceptable read depth of 25,000 sequences per sample. […]

[7] = test system: human peripheral blood mononuclear cells (PBMCs); assay: Cytokine release by human PBMCs incubated with commensal bacteria, alone or combined with E. faecalis (Luminex); type: cell-based; settings: for anti-inflammatory profile for a Th-1-driven condition such as GVHD: overall assessment
Experimental: An in vitro system was developed to efficiently test the inflammatory and immunomodulatory properties of different human commensal bacteria on human peripheral blood mononuclear cells (PBMCs). Experiments were carried out with 21 bacterial candidates to profile their anti-inflammatory properties against human PBMCs. The innate properties of bacteria alone on human PBMCs were tested as well as their ability to counteract the pro-inflammatory activity of Enterococcus feacalis.
Human PBMCs were isolated from fresh blood by density-gradient centrifugation using Ficoll (1-4). […] The results are presented in FIGS. 2-5 for all time points. […] The 24 h results are shown as a composite in FIG. 6 and with statistical analysis on individual cytokines in FIGS. 7-10. The results represent the properties of each bacterial species against human PBMCs and their ability to counteract inflammatory stimulation with E. faecalis in vitro.

tumors = settings: oral administration; anti-PD-1 and anti-CTLA-4 antibody therapies; cited from earlier work

O=C[C@H](O)[C@@H](O)[C@H](O)CO [D-xylose]
SAEs, severe AEs, subject deaths [1]: No SAEs, severe AEs, or subject deaths | tolerability [1]: well tolerated | augmentation (fermentation) of lactobacillus (Lactobacillus johnsonii): not lactobacillus | use as a carbon source by bacterial strains [2]: used as a carbon source by several bacterial strains | ingested amount recovered in urine within 5 hours post-ingestion ([3]; 1 g TID cohort, Days 1, 15 and 28): approximately 40% | serum D-xylose concentrations versus ingestion amount ([3]; 1 to 15 g TID): increased linearly with increasing ingestion amounts | accumulation ratio of serum D-xylose ([3]; Day 15, 15 mg TID cohort, variability high): approximately 1.9 fold | accumulation ratio of serum D-xylose ([3]; Day 28, 15 g TID): 1.68 | basal levels of serum endotoxin (serum endotoxin; mouse, in vivo): reduced these basal levels over time | effect on increase in serum endotoxin level caused by cipro (serum endotoxin; mouse, in vivo): appeared to counteract the increase | effect on increase in serum endotoxin level caused by enro (serum endotoxin; mouse, in vivo): but not enro | levels of serum interferon gamma over time ([4]; 2 g and 15 g D-xylose cohorts): trend for reduced levels | subjects with normal serum CRP at Baseline and at least 1 post-ingestion CRP value >2.9 mg/L ([4]; all cohorts of the sweetener): 8.3% | augmentation (fermentation) of blautia (blautia): specifically augments blautia | Blautia level in the intestinal flora (GVHD): expansion of Blautia in the intestinal flora | GVHD related survival (GVHD): improved survival

CC(=O)O [acetate]
numbers of Tregs in the large intestine [5]: restored normal numbers of Tregs

CCN1CCN(c2cc3c(cc2F)c(=O)c(C(=O)O)cn3C2CC2)CC1 [enro, enrofloxacin, reference compound]
serum endotoxin levels after antibiotic (serum endotoxin; 0.25 g/L in drinking water day −7 to day −2, measured 2 days after a 5 day course (day 0)): led to an increase in serum endotoxin levels

CCC(=O)O [propionate]
numbers of Tregs in the large intestine [5]: restored normal numbers of Tregs

C[C@H](O)[C@H](O)[C@@H](O)[C@@H](O)C=O [rhamnose]
augmentation (fermentation) of lactobacillus (Lactobacillus johnsonii): not lactobacillus | augmentation (fermentation) of blautia (blautia): specifically augments blautia

CN[C@H](CC(C)C)C(=O)N[C@H]1C(=O)N[C@@H](CC(N)=O)C(=O)N[C@H]2C(=O)N[C@H]3C(=O)N[C@H](C(=O)N[C@H](C(=O)O)c4cc(O)cc(O)c4-c4cc3ccc4O)[C@H](O)c3ccc(c(Cl)c3)Oc3cc2cc(c3O[C@@H]2O[C@H](CO)[C@@H](O)[C@H](O)[C@H]2O[C@H]2C[C@](C)(N)[C@H](O)[C@H](C)O2)Oc2ccc(cc2Cl)[C@H]1O [vancomycin]
impact on the microbiome of the gut (PCA at family level, fecal samples) [6]: strong impact on the microbiome of the gut | day 0 to day 6 pattern in vaginal samples (PCA) ([6]; po): showed an overall difference

B. luti [EPV3]
intrinsic inflammatory activity (induction of pro-inflammatory cytokines) compared to EPV 8 ([7]; bacterium alone, 24 h): relatively low intrinsic inflammatory activity | reduction of induction of pro-inflammatory cytokines by EPV 8, including IL-6, MCP-1, IL-12p70, IFNγ ([7]; combination with EPV 8, 24 h): able to reduce | anti-inflammatory profile for a Th-1-driven condition such as GVHD [7]: significantly desirable anti-inflammatory profile

B. wexlerae [EPV5]
anti-inflammatory profile for a Th-1-driven condition such as GVHD [7]: suboptimal anti-inflammatory profile

Bacteroides
responsiveness to checkpoint inhibitor therapy in cancer (tumors): increases the responsiveness

Bifidobacterium
responsiveness to checkpoint inhibitor therapy in cancer (tumors): increases the responsiveness

Lactobacillus
responsiveness to checkpoint inhibitor therapy in cancer (tumors): not
